{"source": "paper doi:10.1101/2024.08.13.607785v1", "about": "(biorxiv, 2024)", "parameters_in_all_cases": "species or system mixed lysate of K562, MV4-11, THP-1, NCI-H1155", "key": {"[1]": {"molecular_target": "Casein kinase I isoform gamma-2 ; CSNK1G2 ; P78368 (Homo sapiens, UniProt P78368)", "sequence (P78368 whole entry, canonical isoform)": "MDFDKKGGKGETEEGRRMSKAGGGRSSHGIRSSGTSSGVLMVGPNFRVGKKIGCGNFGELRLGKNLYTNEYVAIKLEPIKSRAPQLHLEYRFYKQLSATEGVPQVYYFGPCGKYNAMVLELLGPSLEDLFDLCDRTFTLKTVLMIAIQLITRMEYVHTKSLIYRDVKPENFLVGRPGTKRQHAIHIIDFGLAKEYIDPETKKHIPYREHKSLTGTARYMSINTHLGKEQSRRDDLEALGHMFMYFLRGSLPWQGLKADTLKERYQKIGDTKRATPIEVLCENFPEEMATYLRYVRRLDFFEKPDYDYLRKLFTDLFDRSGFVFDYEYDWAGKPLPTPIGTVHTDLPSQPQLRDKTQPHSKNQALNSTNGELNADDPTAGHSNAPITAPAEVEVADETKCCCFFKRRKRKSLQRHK", "conditions": "DIA-MS residual binding; binder"}, "[2]": {"molecular_target": "T1, Ephrin type-B receptor 2 ; EPHB2 ; P29323 (Homo sapiens, UniProt P29323)", "T1 sequence (P29323 1-1055)": "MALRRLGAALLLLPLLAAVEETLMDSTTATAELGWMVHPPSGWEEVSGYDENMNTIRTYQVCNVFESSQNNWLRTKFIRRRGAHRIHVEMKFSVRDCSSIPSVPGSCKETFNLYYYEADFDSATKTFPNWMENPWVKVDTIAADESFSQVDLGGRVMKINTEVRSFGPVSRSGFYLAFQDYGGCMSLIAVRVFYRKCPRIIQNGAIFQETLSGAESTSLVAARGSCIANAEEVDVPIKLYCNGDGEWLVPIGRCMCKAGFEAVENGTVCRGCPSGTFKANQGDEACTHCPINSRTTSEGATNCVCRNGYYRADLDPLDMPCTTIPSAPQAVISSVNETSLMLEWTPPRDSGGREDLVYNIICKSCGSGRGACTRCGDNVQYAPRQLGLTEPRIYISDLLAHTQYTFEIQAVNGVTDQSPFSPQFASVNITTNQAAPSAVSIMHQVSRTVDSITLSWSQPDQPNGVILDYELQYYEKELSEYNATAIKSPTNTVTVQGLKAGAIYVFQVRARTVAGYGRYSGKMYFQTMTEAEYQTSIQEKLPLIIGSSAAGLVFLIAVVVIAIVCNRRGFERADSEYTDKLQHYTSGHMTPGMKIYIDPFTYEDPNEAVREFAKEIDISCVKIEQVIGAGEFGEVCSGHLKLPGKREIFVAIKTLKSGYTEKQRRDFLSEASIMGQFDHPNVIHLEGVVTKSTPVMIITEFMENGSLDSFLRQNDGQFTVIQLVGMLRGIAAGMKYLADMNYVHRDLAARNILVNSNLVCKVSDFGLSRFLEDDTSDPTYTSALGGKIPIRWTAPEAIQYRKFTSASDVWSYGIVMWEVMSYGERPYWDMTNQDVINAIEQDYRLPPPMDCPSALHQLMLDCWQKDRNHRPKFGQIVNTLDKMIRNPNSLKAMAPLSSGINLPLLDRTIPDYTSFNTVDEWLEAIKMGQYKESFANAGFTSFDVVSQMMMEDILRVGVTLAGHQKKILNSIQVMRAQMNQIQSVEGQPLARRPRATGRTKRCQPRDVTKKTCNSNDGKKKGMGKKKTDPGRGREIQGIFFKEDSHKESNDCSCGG", "conditions": "DIA-MS residual binding; binder"}, "[3]": {"molecular_target": "Isoform 3 of Membrane-associated tyrosine- and threonine-specific cdc2 ; PKMYT1-3 ; Q99640-3 (Homo sapiens, UniProt Q99640)", "sequence (Q99640 whole entry, canonical isoform, one chain of several)": "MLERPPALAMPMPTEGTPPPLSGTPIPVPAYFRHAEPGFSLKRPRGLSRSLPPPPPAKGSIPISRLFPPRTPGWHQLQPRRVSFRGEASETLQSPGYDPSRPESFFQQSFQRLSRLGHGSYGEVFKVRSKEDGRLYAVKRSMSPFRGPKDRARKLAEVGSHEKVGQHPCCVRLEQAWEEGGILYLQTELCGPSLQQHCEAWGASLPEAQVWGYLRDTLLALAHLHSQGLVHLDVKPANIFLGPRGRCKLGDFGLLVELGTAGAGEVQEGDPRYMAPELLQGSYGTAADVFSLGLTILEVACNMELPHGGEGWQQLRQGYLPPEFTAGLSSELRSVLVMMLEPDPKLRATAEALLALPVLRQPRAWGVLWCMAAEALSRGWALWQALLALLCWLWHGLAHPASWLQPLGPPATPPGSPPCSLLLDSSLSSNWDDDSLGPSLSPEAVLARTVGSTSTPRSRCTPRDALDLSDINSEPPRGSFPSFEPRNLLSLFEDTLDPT", "conditions": "binder"}, "[4]": {"molecular_target": "Isoform 6 of Tyrosine-protein kinase ABL2 ; ABL2-6 ; P42684-6 (Homo sapiens, UniProt P42684)", "sequence (P42684 whole entry, canonical isoform)": "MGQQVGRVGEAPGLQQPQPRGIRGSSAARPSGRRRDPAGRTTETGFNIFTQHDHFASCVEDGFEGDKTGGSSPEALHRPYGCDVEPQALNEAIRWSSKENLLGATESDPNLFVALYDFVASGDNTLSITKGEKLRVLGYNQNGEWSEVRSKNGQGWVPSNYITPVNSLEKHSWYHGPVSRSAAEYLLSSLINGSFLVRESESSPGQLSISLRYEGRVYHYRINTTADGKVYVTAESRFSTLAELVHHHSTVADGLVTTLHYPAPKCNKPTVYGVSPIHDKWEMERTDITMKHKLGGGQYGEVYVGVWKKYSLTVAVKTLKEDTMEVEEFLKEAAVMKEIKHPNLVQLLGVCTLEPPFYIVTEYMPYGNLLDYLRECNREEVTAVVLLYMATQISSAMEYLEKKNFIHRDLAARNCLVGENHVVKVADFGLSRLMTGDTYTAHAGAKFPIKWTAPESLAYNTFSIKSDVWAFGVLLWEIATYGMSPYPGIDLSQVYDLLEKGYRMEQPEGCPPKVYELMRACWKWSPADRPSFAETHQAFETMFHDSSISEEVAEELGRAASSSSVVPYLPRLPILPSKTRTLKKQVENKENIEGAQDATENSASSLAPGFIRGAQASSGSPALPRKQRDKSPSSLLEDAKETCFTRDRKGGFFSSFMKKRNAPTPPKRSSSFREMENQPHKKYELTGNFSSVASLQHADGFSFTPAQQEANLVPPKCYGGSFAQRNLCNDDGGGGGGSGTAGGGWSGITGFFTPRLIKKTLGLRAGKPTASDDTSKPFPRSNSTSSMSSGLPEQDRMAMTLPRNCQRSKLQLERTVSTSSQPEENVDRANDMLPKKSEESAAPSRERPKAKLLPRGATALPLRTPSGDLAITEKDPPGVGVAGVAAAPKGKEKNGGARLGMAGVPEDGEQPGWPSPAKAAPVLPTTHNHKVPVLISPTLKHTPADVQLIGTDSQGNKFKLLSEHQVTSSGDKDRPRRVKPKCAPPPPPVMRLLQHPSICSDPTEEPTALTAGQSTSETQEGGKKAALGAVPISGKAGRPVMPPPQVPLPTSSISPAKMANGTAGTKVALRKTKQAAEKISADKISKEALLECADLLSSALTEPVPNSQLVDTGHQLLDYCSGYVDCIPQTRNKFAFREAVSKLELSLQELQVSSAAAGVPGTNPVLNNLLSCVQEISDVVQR", "conditions": "DIA-MS residual binding; binder"}, "[5]": {"molecular_target": "LIM domain kinase 1 ; LIMK1 ; P53667 (Homo sapiens, UniProt P53667)", "sequence (P53667 whole entry, the tested form may be a part)": "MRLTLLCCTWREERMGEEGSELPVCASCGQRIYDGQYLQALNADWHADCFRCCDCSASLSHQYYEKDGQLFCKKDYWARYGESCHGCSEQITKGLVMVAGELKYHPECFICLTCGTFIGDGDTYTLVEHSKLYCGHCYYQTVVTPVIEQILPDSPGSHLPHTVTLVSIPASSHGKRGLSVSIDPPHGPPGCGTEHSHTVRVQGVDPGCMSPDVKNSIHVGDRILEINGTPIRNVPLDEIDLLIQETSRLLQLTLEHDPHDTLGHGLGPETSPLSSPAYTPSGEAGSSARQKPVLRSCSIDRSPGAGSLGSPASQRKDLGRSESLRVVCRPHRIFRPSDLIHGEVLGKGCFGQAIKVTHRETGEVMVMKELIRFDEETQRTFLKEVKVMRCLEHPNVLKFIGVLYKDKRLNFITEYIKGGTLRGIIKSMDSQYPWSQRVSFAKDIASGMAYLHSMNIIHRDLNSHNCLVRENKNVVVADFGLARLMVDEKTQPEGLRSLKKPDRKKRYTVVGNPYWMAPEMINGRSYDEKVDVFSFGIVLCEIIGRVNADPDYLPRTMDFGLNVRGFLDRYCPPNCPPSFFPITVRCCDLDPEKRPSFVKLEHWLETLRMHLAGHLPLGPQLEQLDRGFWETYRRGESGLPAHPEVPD", "conditions": "DIA-MS residual binding; binder"}, "[6]": {"molecular_target": "LIM domain kinase 2 ; LIMK2 ; P53671 (Homo sapiens, UniProt P53671)", "sequence (P53671 whole entry, the tested form may be a part)": "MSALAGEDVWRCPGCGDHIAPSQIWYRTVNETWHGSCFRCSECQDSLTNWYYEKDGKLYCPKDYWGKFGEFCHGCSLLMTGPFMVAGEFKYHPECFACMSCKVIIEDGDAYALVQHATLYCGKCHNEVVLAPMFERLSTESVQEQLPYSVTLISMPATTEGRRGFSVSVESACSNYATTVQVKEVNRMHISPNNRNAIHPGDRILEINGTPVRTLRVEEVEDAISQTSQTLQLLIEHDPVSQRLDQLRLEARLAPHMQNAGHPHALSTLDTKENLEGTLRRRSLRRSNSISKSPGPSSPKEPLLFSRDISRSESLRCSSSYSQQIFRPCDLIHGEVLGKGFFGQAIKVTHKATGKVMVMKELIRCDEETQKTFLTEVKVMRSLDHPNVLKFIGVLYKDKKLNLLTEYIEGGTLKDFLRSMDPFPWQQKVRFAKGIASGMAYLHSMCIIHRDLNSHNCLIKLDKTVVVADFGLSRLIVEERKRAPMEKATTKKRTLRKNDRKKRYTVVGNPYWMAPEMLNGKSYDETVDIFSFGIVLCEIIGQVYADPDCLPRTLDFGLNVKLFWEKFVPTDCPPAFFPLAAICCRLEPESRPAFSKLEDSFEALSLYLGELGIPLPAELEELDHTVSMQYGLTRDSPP", "conditions": "DIA-MS residual binding; binder"}, "[7]": {"molecular_target": "Mitogen-activated protein kinase kinase kinase kinase 5 ; MAP4K5 ; Q9Y4K4 (Homo sapiens, UniProt Q9Y4K4)", "sequence (Q9Y4K4 whole entry)": "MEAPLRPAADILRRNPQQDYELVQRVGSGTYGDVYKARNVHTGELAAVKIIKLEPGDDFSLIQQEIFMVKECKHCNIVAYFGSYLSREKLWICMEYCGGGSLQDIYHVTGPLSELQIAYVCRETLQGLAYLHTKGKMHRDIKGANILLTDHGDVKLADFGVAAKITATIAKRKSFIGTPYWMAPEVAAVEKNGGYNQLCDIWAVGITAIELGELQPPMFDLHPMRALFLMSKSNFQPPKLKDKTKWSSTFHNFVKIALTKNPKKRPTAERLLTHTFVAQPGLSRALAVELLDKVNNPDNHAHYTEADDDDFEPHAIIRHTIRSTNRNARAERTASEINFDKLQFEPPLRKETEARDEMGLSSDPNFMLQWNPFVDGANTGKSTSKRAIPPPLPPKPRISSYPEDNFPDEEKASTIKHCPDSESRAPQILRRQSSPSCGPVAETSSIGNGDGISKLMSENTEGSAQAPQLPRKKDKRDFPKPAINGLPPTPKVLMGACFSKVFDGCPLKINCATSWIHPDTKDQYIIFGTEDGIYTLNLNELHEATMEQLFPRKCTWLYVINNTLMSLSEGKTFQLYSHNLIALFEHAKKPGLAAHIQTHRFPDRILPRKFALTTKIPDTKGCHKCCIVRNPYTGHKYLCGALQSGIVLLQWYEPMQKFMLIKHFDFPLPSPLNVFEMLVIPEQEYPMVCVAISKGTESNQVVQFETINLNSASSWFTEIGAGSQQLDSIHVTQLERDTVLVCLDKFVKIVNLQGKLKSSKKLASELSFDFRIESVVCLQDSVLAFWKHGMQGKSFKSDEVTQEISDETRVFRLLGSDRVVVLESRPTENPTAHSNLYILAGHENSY", "conditions": "DIA-MS residual binding; binder"}}, "data": [{"smiles": "Cc1nc(Nc2ncc(C(=O)Nc3c(C)cccc3Cl)s2)cc(N2CCN(CCO)CC2)n1", "note": "[dasatinib]", "values": [{"measurement": "DIA-MS / % Intensity (30 µM/DMSO)", "setting": "[1]", "result": 45.01, "unit": "%"}, {"measurement": "DIA-MS / % Intensity (30 µM/DMSO)", "setting": "[2]", "result": 3.776, "unit": "%"}, {"measurement": "DIA-MS / % Intensity (30 µM/DMSO)", "setting": "[3]", "result": 30.34, "unit": "%"}, {"measurement": "DIA-MS / % Intensity (30 µM/DMSO)", "setting": "[4]", "result": 0.2688, "unit": "%"}, {"measurement": "DIA-MS / % Intensity (30 µM/DMSO)", "setting": "[5]", "result": 33.27, "unit": "%"}, {"measurement": "DIA-MS / % Intensity (30 µM/DMSO)", "setting": "[6]", "result": 12.29, "unit": "%"}, {"measurement": "DIA-MS / % Intensity (30 µM/DMSO)", "setting": "[7]", "result": 28.36, "unit": "%"}]}]}
